Data on eleven molecules can be found in patent US20140073611A1, “METHODS FOR DRUG SCREEN USING ZEBRAFISH MODEL AND THE COMPOUNDS SCREENED THEREFROM” (National Taiwan University, priority 2012, published 2014).

Counter-ions that a name gives are not always drawn.

Assay [1] concerns zLum-MO-injected fish. Put plainly: Eye morphometry and phenotype of zLum-MO-injected fish after muscarinic antagonist treatment (FIGS. 7-8). The assay is classed as in vivo, zebrafish. The following applies: for diameter of the scleral coat / excessive axial elongation: zLum-MO-injected fish at 7 dpf, FIG. 7(C); for diameter of the scleral coat / excessive axial elongation / ratio of RPE/scleral coat (%): 0.5% atropine, 0.25% pirenzepine; for diameter of the scleral coat / excessive axial elongation / ratio of RPE/scleral coat (%) / ocular enlargement (phenotype): 0.01% methoctramine; for ratio of RPE/scleral coat (%): zLum-MO-injected fish, FIG. 7(D); for ocular enlargement (phenotype): zLum-MO-injected larvae at 7 dpf, 0.5% atropine for 2 days, 0.25% pirenzepine for 2 days, FIG. 8. The source says: FIGS. 7(A)-(D) depict a zebrafish drug screen assay. FIGS. 7(A) and (B) illustrate and define the outer margin of the retinal pigmented epithelium layer (RPE(red color)) and the diameter of the scleral coat (D(green color)) in zebrafish.
(§1) Big eye in a zebrafish is an indicator of myopia. As used herein, a “big eye” refers to an eye with an enlarged axial length of eyeball and denotes the value of the axial length of the retinal pigmented epithelium layer divided by the axial length of the scleral coat less than 0.7. The axial length of a retinal pigmented epithelium layer and the axial length of a scleral coat can be measured by any method known in the art—for example, dissecting microscopy.
Morpholinos are chemically modified antisense oligonucleotides that can be designed to hybridize to the translation-initiation or splicing acceptor/donor sites of specific mRNAs (Nasevicius A, Ekker S C. Effective targeted gene ‘knockdown’ in zebrafish. Nat Genet 2000; 26(2):216-20). A morpholino-antisense oligonucleotide (Gene Tools, Philomath, Oreg.) are designed and synthesized to target the 5′-untranslated and/or flanking regions, including the translation start codon of the respective genes. The MO sequence is designed as follows: zLum-MO, 5′-[…]-3′. This oligonucleotide complemented the sequence from −8 through +17 with respect to the translation initiation codon. A random sequence MO (RS-MO) serves as a control for zLum-MO: 5′-[…]-3′. This RS-MO is obtained from Gene Tools as a standard control oligonucleotide with no target specificity (Yeh L K, Liu C Y, Kao W W, et al. Knockdown of zebrafish lumican gene (zlum) causes scleral thinning and increased size of scleral coats. J Biol Chem 2010; 285(36):28141-55).
(§2) Morpholino is resuspended in sterile water to a concentration of 1 mmol/L and diluted to […] with sterile water. The morpholinos are injected at the single-cell stage in a volume of 0.0023 nL. Here, we identified the effects of morpholinos on protein levels are assayed with western blotting from injected embryos with GAPDH as a control.

The test system of assay [2] is lumican knockdown zebrafish (zLum-MO). Put plainly: Drug screen in lumican (zLum-MO) knockdown zebrafish: big eye ratio / scleral coat enlargement. The assay is classed as in vivo. The following applies: for outcome of the screen of about 30 drugs: lumican knockdown zebrafish model; for % of scleral enlargement in experimental group: zLum-MO knockdown model, vs. 30% of scleral enlargement in control group. The method, then: The term “big eye” denotes that an eye with a value of the axial length of the retinal pigmented epithelium layer divided by the axial length of the scleral coat is less than 0.7.
According to the disclosure, the knockdown zebrafish are exposed to a test compound at the optic cup formation stage thereof. Generally, at around 24 hours after fertilization, the optic cup of zebrafish is formed. The knockdown zebrafish can be exposed to the test compound at the optic cup formation stage. After contacting the knockdown zebrafish with the test compound, the test compound, if it is a potential candidate, may start to activate the expression of lumican and collagen fibrillogenesis, thereby decreasing the enlargement of eyeball and treating and/or preventing myopia and/or keratoconus disease. Retina lenses are established around 48 hours after fertilization, and the sclera and cornea are established around 72 hours after fertilization. At sclera and cornea establishment stage, the zebrafish are collected.
as §1
The test compound can be identified as a candidate compound affecting the expression of lumican and/or collagen fibrillogenesis and/or regulation of eyeball size, and/or treating and/or preventing myopia and/or keratoconus disease if the ratio of the number of big eyes decreases relative to the total number of eyes in zebrafish or that of big eyes in control zebrafish that is not contacted with the test compound. […] Preferably, the ratio is less than 15%. More preferably, the ratio decreases to about 0% to about 30%, about 0% to about 25%, about 0% to about 20%, about 0% to about 15%, about 0% to about 10%, about 1% to about 30%, about 1% to about 25%, about 1% to about 20% or about 1% to about 15%.
Zebrafish are raised and maintained according to previously established protocols (Soules K A, Link B A. Morphogenesis of the anterior segment in the zebrafish eye. BMC Dev Biol 2005; 5:12). All experiments are performed on Tuebingen AB zebrafish raised at 28° C. on a 14-h light and 10-h dark cycle and maintained using standard methods. Embryos are staged according to morphological criteria (somite number) (Kimmel C B, Ballard W W, Kimmel S R, et al. Stages of embryonic development of the zebrafish. Dev Dyn 1995; 203(3):253-310) and timed in hours after fertilization. Embryos are generated by natural pair-wise mating, as described in the zebrafish handbook (Westerfield M. The Zebrafish Book; A Guide for the Laboratory Use of Zebrafish (Brachydanio rerio). University of Oregon Press, Eugene, 2nd edition 300P., 1993). For each mating, 4±5 pairs are set up and, on an average; 100±150 embryos per pair are generated. The zebrafish embryo is optically transparent, making it possible to detect functional and morphological changes in internal organs without having to kill or dissect the organism. Chorions are removed manually with Dumont Watchmaker's Forceps No. 5.
Morpholinos are chemically modified antisense oligonucleotides that can be designed to hybridize to the translation-initiation or splicing acceptor/donor sites of specific mRNAs (Nasevicius A, Ekker S C. Effective targeted gene ‘knockdown’ in zebrafish. Nat Genet 2000; 26(2):216-20). A morpholino-antisense oligonucleotide (Gene Tools, Philomath, Oreg.) are designed and synthesized to target the 5′-untranslated and/or flanking regions, including the translation start codon of the respective genes. The MO sequence is designed as follows: zLum-MO, 5′-[…]-3′.

Assay [3] deals with zLum-MO-injected fish. Particulars: in vivo zebrafish larvae assays; prior reference Yeh et al., J Biol Chem 2010; cited from earlier work.
For assay [4], the system named is lumican, collagen 1a1, TGF-beta, MMP2 and TIMP2. Put plainly: Expression patterns in atropine-treated zLum knockdown morphant (FIG. 9). The assay is classed as in vivo, zebrafish. The method, then:
FIG. 9 depicts atropine rescues zLum knockdown morphant.
as §2
We used several antibodies to evaluate the effects of lumican knockdown and all can be obtained from different commercial supplies. Rabbit anti-TGFβ2, Rabbit anti-MMP-2, Goat anti-TIMP-2, Goat anti-Col1a1 (L-19) and Goat anti-PDI are obtained from Santa Cruz. Mouse anti-GAPDH is obtained from Abnova.

As for `COc1ccccc1CNCCCCCCNCCCCCCCCNCCCCCCNCc1ccccc1OC` [methoctramine], in the assay on zLum-MO-injected fish [1], the “diameter of the scleral coat” value is “no obvious changes”, the excessive axial elongation result is given as “no obvious changes”, the “ratio of RPE/scleral coat (%)” value is “no obvious changes” and the “ocular enlargement (phenotype)” value is “no obvious changes in the phenotypes”.
As for `CC(C)[N+]1(C)[C@@H]2CC[C@H]1CC(OC(=O)C(CO)c1ccccc1)C2.[Br-]` (some centres unmarked) [Ipratropium bromide], the “Big eye rate(%)” value in assay [2] (lumican knockdown zebrafish, big eye = RPE/scleral coat axial length < 0.7, Conc.: Atropine 0.50%, Tropicamide 1 mM, Ipratropium 50 mM, Oxybutynin 2 uM, Scopolamine 100 uM, Pirenzepine 0.25%, SB 431542 25 uM, Tamoxifen 20 uM, Doxycycline 100 ppm, Genistein 25 uM, Marimastat 50 uM, Taurine 0.2M, Minocycline 50 uM, n-acetylcysteine 10 uM, Aspirin 50 mg/L, Propofol 0.5 mM, SP600125 2.5 uM, Zileuton 1) was determined as 26.0%.
As to `CNC(=O)[C@@H](NC(=O)[C@H](CC(C)C)[C@H](O)C(=O)NO)C(C)(C)C` [Marimastat], in assay [2], the “outcome of the screen of about 30 drugs” value is “effective candidate compounds” and the “% of scleral enlargement in experimental group” value (from here on “% of scleral enlargement”) turned out to be 2%.
For `C[C@H](CS)C(=O)N1CCC[C@H]1C(=O)O` [Captopril], the “outcome of the screen of about 30 drugs” value in assay [2] is reported as “effective candidate compounds”.
In the case of `CN1CCN(CC(=O)N2c3ccccc3C(=O)Nc3cccnc32)CC1` [Pirenzepine dihydrochloride], the “ocular enlargement caused by morpholinos” value with zLum-MO-injected fish [3] is “effectively subdued the ocular enlargement”. Moreover, in the assay with zLum-MO-injected fish [1], the “diameter of the scleral coat” value is given as “Significant decreases”, the excessive axial elongation entry is “significant decreases”, the “ratio of RPE/scleral coat (%)” value is “attenuate the decreasing ratio” and the “ocular enlargement (phenotype)” value is reported as “decreases in ocular enlargement”.
Consider `CC(C)c1cccc(C(C)C)c1O` [Propofol, 2,6-diisopropylphenol], for which, in assay [2], the “outcome of the screen of about 30 drugs” value was “effective candidate compounds” and the “% of scleral enlargement” value amounted to 12%.
For `C[C@H]1c2cccc(O)c2C(=O)C2=C(O)[C@]3(O)C(=O)C(C(N)=O)=C(O)[C@@H](N(C)C)[C@@H]3[C@@H](O)[C@@H]21` [Doxycycline hyclate], in assay [2], the “% of scleral enlargement” value is recorded as 6.8%.
Regarding `CC(=O)Oc1ccccc1C(=O)O` [Aspirin], in assay [2], the “outcome of the screen of about 30 drugs” value was “effective candidate compounds” and the “% of scleral enlargement” value came out at 9.6%.
Take `CN1[C@@H]2CC[C@H]1C[C@@H](OC(=O)C(CO)c1ccccc1)C2` (some centres unmarked) [Atropine]: the “ocular enlargement caused by morpholinos” value in the assay on zLum-MO-injected fish [3] is “effectively subdued the ocular enlargement”. For the same molecule, the scleral coat enlargement result in the assay on zLum-MO-injected fish [1] (lumican knockdown fish, administration of atropine, FIGS. 7 to 9) is listed as “could be inhibited”. For the same molecule, in the assay with zLum-MO-injected fish [1], the “diameter of the scleral coat” value is given as “Significant decreases”, the excessive axial elongation result was “significant decreases”, the “ratio of RPE/scleral coat (%)” value was “attenuate the decreasing ratio” and the “ocular enlargement (phenotype)” value is “significant decreases in ocular enlargement”. In addition, in assay [4] (lumican knockdown fish, atropine treatment), the “expression of MMP-2 and TIMP” value is reported as “returned to the normal level”. For the same molecule, the “expressions of lumican, collagen 1a1, TGF-beta, MMP2 and TIMP2 in lumican morphant” value in assay [4] (zLum knockdown morphant treated with atropine, FIG. 9) is reported as “reverse the expressions”.
As to `CC(=O)N[C@@H](CS)C(=O)O` [n-acetylcysteine], in assay [2], the “outcome of the screen of about 30 drugs” value is “effective candidate compounds” and the “% of scleral enlargement” value stood at 11.7%.
For the molecule `CN(C)c1ccc(O)c2c1C[C@H]1C[C@H]3[C@H](N(C)C)C(O)=C(C(N)=O)C(=O)[C@@]3(O)C(O)=C1C2=O` [Minocycline hydrochloride], in assay [2], the “% of scleral enlargement” value was 4.7%.
